Results on one molecule are retold here after publication PMC10743883, “Identification and Functional Analysis of an Epsilon Class Glutathione S-Transferase Gene Associated with α-Pinene Adaptation in Monochamus alternatus” (International Journal of Molecular Sciences, 2023).

The assay has as its system MaGSTe3. Description: GSH conjugation, absorbance at […] nm, Michaelis-Menten fit. It counts as biochemical, Monochamus alternatus. To be noted: co-substrate GSH (concentration not given); 100 mM PBS; CDNB varied, printed range 0–400 mM.

A word on the Km: it is the substrate concentration at which the rate is half of its maximum. `O=[N+]([O-])c1ccc(Cl)c([N+](=O)[O-])c1` [1-chloro-2,4-dinitrobenzene]: the Km was determined as 1240 ± 210 µM.
